US20250214986A1, “P2X3 INHIBITOR COMPOUND, SALT THEREOF, POLYMORPH THEREOF AND USE THEREOF” (HUMANWELL HEATHCARE (GROUP) CO., LTD., priority 2022, published 2025)

Legend:
[1] = Pharmacokinetic assay in mice; assay type: in vivo, male ICR mice; conditions: male, ICR, mouse, plasma, mice, oral intragastric administration, 10 mg/kg
Experimental: Pharmacokinetic assay in mice was performed, wherein the mice used were male ICR mice weighing 20-25 g and fasted overnight. 3 mice were taken and given the compound by oral intragastric administration at 10 mg/kg, and blood was collected before administration and at 15 min, 30 min, 1 h, 2 h, 4 h, 8 h, and 24 h after administration. The blood samples were centrifuged at 6800 g at 2-8° C. for 6 min, and plasma was collected and stored at −80° C. […] The mixture was vortexed for 1 min and then centrifuged at 13000 rpm at 4° C. for 10 min. The supernatant was taken, and 3 times its amount of water was added for mixing. A proper amount of the resulting mixture was taken for LC-MS/MS analysis. The major pharmacokinetic parameters were analyzed using a non-compartmental model in the WinNonlin 7.0 software.

[2] = test system: citric acid/histamine-stimulated cough model; assay: Cough efficacy assay of histamine/citric acid in guinea pigs; assay type: in vivo; conditions: histamine/citric acid nebulization, intranasal instillation
Experimental: (§1) Before enrollment, the animals were acclimatized for 3-7 days. Once their body weight reached the standard (300-400 g), they were numbered and randomly grouped. 0.25-24 h before the start of the cough assessment, the compound or excipient was administered to the guinea pigs via intranasal instillation. The dose range for the administration of the test substance was 0.17-1.5 mg/kg. During the cough assessment, after the animals were acclimated in a whole-body plethysmography box, they were given histamine nebulization, followed by citric acid nebulization. The number of coughs and the cough latency of the animals were recorded within 22 min from the start of the histamine nebulization until the end of the observation period. For the statistics of experimental data, the one-way ANOVA method was used to analyze and compare the data of the groups. Statistical analysis results with p<0.05 were considered to indicate significant differences. Pairwise comparisons were performed using the t-test method to assess differences.

[3] = test system: citric acid/ATP-stimulated cough model; assay: Cough efficacy assay of ATP/citric acid in guinea pigs; assay type: in vivo; conditions: ATP/citric acid nebulization, intranasal instillation
Experimental: as §1, with “ATP” for “histamine”, “and after a few minutes, they were given” for “followed by”, “15” for “22”, “citric acid nebulization. The” for “histamine nebulization until the end of the observation period. For the statistics of experimental data, the”

[4] = Competitive suspension tests of free base crystalline forms A/B; assay type: physicochemical
Experimental: In order to confirm the thermodynamic transformation relationship between the anhydrous free base crystalline forms A and B under different temperature conditions, competitive suspension tests in n-heptane and toluene at room temperature and 50° C. were set up.

AUC(0-t) [1] | Cmax [1] | Tmax [1] | half-life ([1]; read-out: T½ (converted)) | Resulting crystalline form after competitive suspension ([4]; Toluene, 50° C., 2 d) | Resulting crystalline form after competitive suspension ([4]; Toluene, RT, 5 d) | Resulting crystalline form after competitive suspension ([4]; n-Heptane, 50° C., 2 d) | Resulting crystalline form after competitive suspension ([4]; n-Heptane, RT, 42 d) | SMILES | Cough inhibition rate vs. vehicle (%) [2] | Mean number of coughs within 15 min [2] | Cough inhibition rate vs. vehicle (%) [3] | Mean number of coughs within 15 min [3]
5200 ng·h/mL | 1250 ng/mL | 30 min | 145 min | – | – | – | – | Cc1cnc(-c2cc(O[C@@H]3CCOC3)cc(C(=O)N[C@H](C)c3cnc(C(F)(F)F)nc3)c2)s1 [Control compound 1, reference compound] | 57.1% | 11.4 | 59.1% | 8.1
– | – | – | – | Free base crystalline form A | Free base crystalline form A | Free base crystalline form A | Free base crystalline form A | Cc1cnc(-c2cc(O[C@@H](C)[C@@H](C)O)cc(C(=O)N[C@H](C)c3cnc(C(F)(F)F)nc3)c2F)s1 [Free base crystalline forms A + B] | – | – | – | –
